Results from patent US4450272A, “Antiatherosclerotic 1-piperazine-thicarboxamides” (American Cyanamid Company, priority 1982, dated 1984).

Tests used:
[1] = tested on: serum lipids (sterol, triglycerides); experiment: Ability to lower lipid levels in mammals (serum cholesterol and triglycerides in rats, 5 days in diet); format: in vivo, male rats COBS, CD, SD strain; conditions: male rats, oral, 0.1% compound in diet, vs control; for inhibition in vivo at 0.1 % in diet: Rattus norvegicus, 120 h, read-out: % Lowering of Serum Triglycerides
Description: The compounds were also tested for their ability to lower lipid levels in mammals. The compounds were administered orally admixed with diet to groups of four male rats COBS, CD, SD strain from Charles River Breeding Laboratories, Inc., Wilmington, Mass. A control group of eight rats was maintained on the diet alone; test groups were maintained on the diet plus the indicated percentage of test compound by weight. After 5 days treatment, serum cholesterol and triglyceride concentrations were determined by direct enzymatic procedures using a Centrifichem® System 400 autoanalyzer (Union Carbide Co.). Cholesterol concentrations were determined by the combined cholesterol esterase-cholesterol oxidase procedure of Roelschlau et. al., Zeit. Klin. Chem. Klin. Biochem., 12, 226 (1974). Triglycerides were determined by the combined method of lipase catalyzed hydrolysis of triglycerides to glycerol and free fatty acids [Bucolo, G. and David, H., Clin. Chem., 19, 476 (1973) and Wahlefeld, A. W., in "Methods of Enzymatic Analysis", Vol. 4, Bergmeyer, H. U., Editor, Academic Press, New York, N.Y. (1974), pp. 1831-1835] and the enzymatic oxidation of the glycerol which leads to the production of colored formazan [Stavropoulos, W. S. and Crouch, R. D., Clin. Chem., 20, No. 7, 857 (1974)]. […] Compounds which produce statistically significant lowering of either sterol or triglycerides are considered to be active.

[2] = target: T1, fatty acyl CoA:cholesterol acyl transferase (ACAT) (Rattus norvegicus, UniProt O70536); experiment: Inhibition of ACAT (fatty acyl CoA:cholesterol acyl transferase) in rat adrenal supernatant; format: biochemical; conditions: rat adrenals, final concentration 5.2 μg./ml., pH 7.4, 37° C.
T1 construct: The supernatant, containing the microsomal fraction, served as the source of the cholesterol-esterifying enzyme; from tissue; host or cells: rat adrenals, 1000 x g supernatant containing the microsomal fraction
T1 sequence (O70536 1-545): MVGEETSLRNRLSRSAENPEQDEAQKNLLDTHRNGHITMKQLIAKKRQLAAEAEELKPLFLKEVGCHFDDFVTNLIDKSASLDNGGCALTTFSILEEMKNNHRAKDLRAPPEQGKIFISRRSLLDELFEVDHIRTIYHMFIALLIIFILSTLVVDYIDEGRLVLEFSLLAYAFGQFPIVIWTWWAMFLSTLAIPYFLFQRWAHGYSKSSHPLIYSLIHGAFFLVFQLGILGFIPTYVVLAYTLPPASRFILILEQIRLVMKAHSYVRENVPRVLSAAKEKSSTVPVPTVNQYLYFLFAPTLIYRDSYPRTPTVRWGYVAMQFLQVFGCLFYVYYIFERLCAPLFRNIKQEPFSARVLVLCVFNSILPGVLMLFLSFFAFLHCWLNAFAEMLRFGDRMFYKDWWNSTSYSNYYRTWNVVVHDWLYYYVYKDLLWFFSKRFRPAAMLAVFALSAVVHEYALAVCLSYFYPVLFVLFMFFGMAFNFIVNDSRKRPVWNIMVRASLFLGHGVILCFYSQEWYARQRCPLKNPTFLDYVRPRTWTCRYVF
Description: Compounds were tested for their ability to inhibit ACAT according to the following procedure:
Rat adrenals were homogenized in 0.2 M monobasic potassium phosphate buffer, pH 7.4, and centrifuged at 1000 times gravity for 15 minutes at 5° C. The supernatant, containing the microsomal fraction, served as the source of the cholesterol-esterifying enzyme, fatty acyl CoA:cholesterol acyl transferase (ACAT). A mixture comprising 50 parts of adrenal supernatant, 10 parts of albumin (BSA) (50 mg./ml.), 3 parts of test compound (final concentration 5.2 μg./ml.) and 500 parts of buffer was preincubated at 37° C. for 10 minutes. After treatment with 20 parts of oleoyl CoA (^14 C -0.4 μCi) the mixture was incubated at 37° C. for 10 minutes. A control mixture, omitting the test compound, was prepared and treated in the same manner. The lipids from the incubation mixture were extracted into an organic solvent and separated by thin-layer chromatography. The cholesterol ester fraction was counted in a scintillation counter. This procedure is a modification of that described by Hashimoto, et. al., Life Scie., 12 (Part II), 1-12 (1973).
Compounds which produce a statistically significant inhibition of the ACAT enzyme are considered to be active.

aortic sterol content = experiment: Ability to decrease aortic sterol content without effecting serum sterol, cholesterol-fed cockerels; format: in vivo, Day-old-cockerels; set-up: key: Active: Compounds which produce statistically significant decreases in the aortic sterol content without having an effect on serum sterol are considered to be active; conditions: 525 mg. test compound and 20 g. cholesterol per kg. of diet, 14 days
Description: The compounds were further tested for their ability to decrease aortic sterol content without effecting serum sterol.
Day-old-cockerels were placed on diets consisting of pullet starter mash supplemented with either 20 g. cholesterol (control group) or 20 g. cholesterol and 525 mg. test compound (drug-treated group) per kg. of diet.
For the control diet 20 g. of cholesterol is dissolved in 200 ml. of chloroform, mixed into one kg. of pullet starter mash and then the chloroform is removed by evaporation.
For the drug-treatment group 525 mg. of the test compound is dissolved in 100 ml. of chloroform, mixed into a diet prepared as described above and then the chloroform is evaporated.
The cockerels were housed three per cage and given water and their respective diet ad libitum for 14 days. Blood was collected by cardiac puncture and the serum was saponified [Trinder, P., Analyst, 77, 321 (1952)] and extracted and the cholesterol content determined [Zlatkis, A. et. al., J. Lab. Clin. Med., 41, 486 (1953)]. The aortae were removed, cleaned of adventitial tissue and the sterol content determined according to the above procedures. Compounds which produce statistically significant decreases in the aortic sterol content without having an effect on serum sterol are considered to be active.

inhibition at 5.2 µg/mL [2] [%] | SMILES | inhibition in vivo at 0.1 % in diet [1] [%] | Result (decrease of aortic sterol content without effect on serum sterol) (aortic sterol content) | % Lowering of Serum Sterol [1] [%]
– | S=C(Nc1c(Cl)cccc1Cl)N1CCN(c2cnccn2)CC1 [2',6'-Dichloro-4-(2-pyrazinyl)-1-piperazinethiocarboxanilide] | 37 | – | –
– | S=C(Nc1ccccc1Cl)N1CCN(c2cnccn2)CC1 [2'-Chloro-4-(2-pyrazinyl)-1-piperazinethiocarboxanilide] | 49 | – | –
– | Fc1ccccc1NC(=S)N1CCN(c2cnccn2)CC1 [2'-Fluoro-4-(2-pyrazinyl)-1-piperazinethiocarboxanilide] | 21 | – | –
31 | S=C(Nc1ccc(Cl)cc1)N1CCN(c2cnccn2)CC1 [4'-Chloro-4-(2-pyrazinyl)-1-piperazinethiocarboxanilide] | 49 | – | –
– | N#Cc1ccc(NC(=S)N2CCN(c3cnccn3)CC2)cc1 [4'-Cyano-4-(2-pyrazinyl)-1-piperazinethiocarboxanilide] | 55 | Active | –
– | Fc1ccc(NC(=S)N2CCN(c3cnccn3)CC2)cc1 [4'-Fluoro-4-(2-pyrazinyl)-1-piperazinethiocarboxanilide] | 37 | – | –
56 | CC(C)c1ccc(NC(=S)N2CCN(c3cnccn3)CC2)cc1 [4'-Isopropyl-4-(2-pyrazinyl)-1-piperazinethiocarboxanilide] | – | – | –
– | CCNC(=S)N1CCN(c2cnccn2)CC1 [N--Ethyl-4-(2-pyrazinyl)-1-piperazinethiocarboxamide] | – | Active | –
– | S=C(Nc1ccccc1)N1CCN(c2cnccn2)CC1 [N--Phenyl-4-(2-pyrazinyl)-1-piperazinethiocarboxamide] | 52 | Active | –
31 | S=C(NC1CCCCC1)N1CCN(c2cnccn2)CC1 [N-Cyclohexyl-4-(2-pyrazinyl)-1-piperazinethiocarboxamide] | 43 | – | –
48 | CCNC(=S)N1CCN(c2ccc3ccccc3n2)CC1 [N-Ethyl-4-(2-quinolyl)-1-piperazinethiocarboxamide] | – | – | –
40 | CCNC(=S)N1CCN(c2cncc(OC)n2)CC1 [N-Ethyl-4-(6-methoxy-2-pyrazinyl)-1-piperazinethiocarboxamide] | 38 | – | –
– | CNC(=S)N1CCN(c2cnccn2)CC1 [N-Methyl-4-(2-pyrazinyl)-1-piperazinethiocarboxamide] | 31 | Active | –
33 | S=C(NCCc1ccccc1)N1CCN(c2cnccn2)CC1 [N-Phenethyl-4-(2-pyrazinyl)-1-piperazinethiocarboxamide] | – | – | 16
